{
  "source": "paper PMC9551036",
  "about": "“A selective and orally bioavailable VHL-recruiting PROTAC achieves SMARCA2 degradation in vivo” (Nature Communications, 2022)",
  "key": {"[1]": {"assay": "Pharmacokinetic analyses in mouse", "type": "in vivo", "settings": "mouse, plasma; for AUC: read-out: AUC; for AUC(0-inf): read-out: AUCinf", "description": "Compound concentrations in plasma aliquots were measured by quantitative HPLC-MS/MS using an internal standard. Calibration and quality control samples were prepared using blank plasma from untreated animals. Samples were precipitated with acetonitrile and injected into a HPLC system (Agilent 1200). Separation was performed by gradients of 5 mmol/L ammonium acetate pH 4.0 and acetonitrile with 0.1% formic acid on a 2.1 mm by 50 mm XBridge BEH C18 reversed-phase column with 2.5 µm particles (Waters). The HPLC was interfaced by ESI operated in positive ionisation mode to a triple quadrupole mass spectrometer (5000 or 6500+ Triple Quad System, SCIEX) operated in multiple reaction monitoring mode. Transitions were 532.4 to 432.8 m/z for BI01810284, 525.6 to 425.7 m/z for BI01802983 and 1021.6 to 624.2 m/z for BI01580883. Chromatograms were analyzed with Analyst (SCIEX) and pharmacokinetic parameters were calculated by non-compartmental analysis using BI-proprietary software."}, "SMARCA2": {"target": "SMARCA2 (Homo sapiens, UniProt P51531)", "sequence (P51531 whole entry)": "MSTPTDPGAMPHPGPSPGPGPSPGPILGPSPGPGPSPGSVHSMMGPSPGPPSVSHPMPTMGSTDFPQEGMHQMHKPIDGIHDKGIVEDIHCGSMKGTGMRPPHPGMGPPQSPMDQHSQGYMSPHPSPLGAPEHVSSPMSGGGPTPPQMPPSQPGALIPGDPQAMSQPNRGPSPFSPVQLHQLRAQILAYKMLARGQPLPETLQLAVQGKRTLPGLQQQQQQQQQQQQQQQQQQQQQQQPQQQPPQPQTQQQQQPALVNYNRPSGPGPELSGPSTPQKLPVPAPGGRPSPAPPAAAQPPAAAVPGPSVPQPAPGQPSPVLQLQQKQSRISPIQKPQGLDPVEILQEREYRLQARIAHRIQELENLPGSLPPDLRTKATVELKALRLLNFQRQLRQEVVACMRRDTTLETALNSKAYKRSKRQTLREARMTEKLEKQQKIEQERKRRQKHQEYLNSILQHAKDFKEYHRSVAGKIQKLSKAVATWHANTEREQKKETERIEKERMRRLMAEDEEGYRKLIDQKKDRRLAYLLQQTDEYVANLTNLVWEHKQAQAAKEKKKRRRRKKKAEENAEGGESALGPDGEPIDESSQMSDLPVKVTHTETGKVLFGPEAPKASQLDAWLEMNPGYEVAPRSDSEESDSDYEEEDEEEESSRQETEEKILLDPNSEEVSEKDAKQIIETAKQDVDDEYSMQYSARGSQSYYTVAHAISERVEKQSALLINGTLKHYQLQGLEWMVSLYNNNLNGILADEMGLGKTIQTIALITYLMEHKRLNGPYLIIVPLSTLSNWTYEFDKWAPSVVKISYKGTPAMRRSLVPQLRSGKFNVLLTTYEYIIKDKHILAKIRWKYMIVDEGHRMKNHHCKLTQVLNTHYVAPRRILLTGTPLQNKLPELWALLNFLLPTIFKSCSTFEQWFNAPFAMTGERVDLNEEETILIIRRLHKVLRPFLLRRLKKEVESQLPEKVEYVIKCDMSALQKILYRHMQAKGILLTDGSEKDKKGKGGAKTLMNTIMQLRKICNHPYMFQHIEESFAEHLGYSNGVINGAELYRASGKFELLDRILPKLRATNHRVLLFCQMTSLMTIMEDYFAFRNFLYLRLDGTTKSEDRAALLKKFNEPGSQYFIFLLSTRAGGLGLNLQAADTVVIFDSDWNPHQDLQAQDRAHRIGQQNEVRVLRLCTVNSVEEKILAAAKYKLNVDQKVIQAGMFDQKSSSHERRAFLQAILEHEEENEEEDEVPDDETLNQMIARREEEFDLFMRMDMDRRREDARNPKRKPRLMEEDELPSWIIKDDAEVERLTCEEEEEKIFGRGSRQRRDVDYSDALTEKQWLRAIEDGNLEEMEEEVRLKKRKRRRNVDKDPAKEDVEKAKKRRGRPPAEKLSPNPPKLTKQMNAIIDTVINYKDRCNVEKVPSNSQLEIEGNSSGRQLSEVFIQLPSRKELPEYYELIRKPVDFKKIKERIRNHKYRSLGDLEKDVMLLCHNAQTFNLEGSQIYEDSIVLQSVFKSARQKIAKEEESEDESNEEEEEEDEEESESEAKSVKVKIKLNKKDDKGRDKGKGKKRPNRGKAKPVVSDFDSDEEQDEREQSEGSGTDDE", "assay": "SMARCA2 IHC in NCI-H1568 xenograft tumours", "type": "in vivo, mouse", "set-up": "from tissue; host or cells: subcutaneous NCI-H1568 or A549 xenograft tumours in BomTac:NMRI-Foxn1nu mice", "settings": "individual tumours; for SMARCA2 (OD, normalised): background OD 0.03518 subtracted", "description": "(§1) To establish subcutaneous tumours, mice were injected with 5 × 10^6 NCI-H1568 in PBS with 5% FCS or with 1 × 10^7 A549 cells in PBS with 5% FCS. Tumour diameters were measured with a caliper three times a week. The volume of each tumour (in mm^3) was calculated according to the formula [tumour volume = length × diameter^2 × π/6]. To monitor side effects of treatment, mice were inspected daily for abnormalities and body weight was determined daily after the start of treatment. Animals were sacrificed when the tumours reached a size of 1500 mm^3. Mice were randomised into treatment groups when the average tumour size reached ~210–220 mm^3. Group sizes were calculated individually for each tumour model based on tumour growth during model establishment experiments. A power analysis was performed using a sample size calculator (https://www.stat.ubc.ca/~rollin/stats/ssize/n2.html). For both models used in the study, 10 mice per group were used for each experiment. All administrations were dosed with 10 ml/kg (s.c. and oral). Control mice were dosed subcutaneously with 10% HP-β-CD in 50% Ringer solution and orally with 15% HP-β-CD, that means the control mouse treatment was corresponding to the solvent of the compounds. Compound 6 was dosed subcutaneously either in a d1-4 q3d, d6-8 q2d, d11-13 q2d treatment (Treatment 1) or a q3 or 4d treatment (Treatment 2).\nXenograft samples were fixed in 10% formaldehyde for 24 h and later moved to ethanol and embedded in paraffin. 2 µm-thick sections were cut using a microtome, then placed on glass slides ([…], silan printer slides PR-S:001), and subsequently dewaxed. SMARCA2 immunohistochemistry was carried out on the Leica BOND RX platform (Leica Biosystems) according to manufacturer’s instructions using a human-specific SMARCA2 antibody (Cell Signalling #11966 clone D9E8B RRID:AB_2797783 1:400) where the tissue underwent a heat-induced epitope retrieval for 20 min. After staining, the slides were cover-slipped with Shandon Consul-Mount glass covers, scanned using a slide scanner (3D HISTECH Ltd.). All slides were reviewed and evaluated for quality by a board-certified MD specialist in Anatomic Pathology (PC). Imaging analysis was performed using the digital pathology platform HALO (Indica Labs). A tissue-classifying algorithm was trained to selectively recognise viable tumour tissue against stroma, necrosis, and skin. The tissue classification output for each scan was reviewed and manually edited as necessary. A cell detection and scoring algorithm was trained to measure DAB optical density (OD) in the nuclei of tumour cells. A positivity threshold for DAB OD was determined by normalisation with respect to the DAB OD as calculated from bona fide negative tissue (e.g. murine stroma as background). The average, background-normalised DAB OD of tumour cell nuclei was used to quantitate SMARCA2 expression in each xenograft sample."}, "[2]": {"assay": "Body weight / tolerability in xenograft studies", "type": "in vivo, mouse", "settings": "A549 xenograft, 80 mg/kg p.o. once daily", "description": "as §1"}, "[3]": {"settings": "iv, 5 mg/kg, 5 mg/kg i.v., individual animals"}, "[4]": {"settings": "iv, 5 mg/kg, 5 mg/kg i.v., NCA, individual animals"}, "[5]": {"settings": "po, 30 mg/kg, 30 mg/kg p.o., individual animals"}, "[6]": {"settings": "po, 30 mg/kg, 30 mg/kg p.o., NCA, individual animals"}},
  "note": "“And” between values parts separate entries of the source, which are not always exact repeats. Equal entries are not always repeated. Where two headings read alike, the source gives them in different places.",
  "data": [
    {"smiles": "Cc1ncsc1-c1ccc(C(CCC(C)CCN2CCC(c3ccc4c(c3)n(C3CCCC3)c3nc(=O)c5c(Br)cccc5n43)CC2)NC(=O)C2CC(O)CN2C(=O)C(NC(=O)C2(F)CC2)C(C)(C)C)cc1", "note": "(centres unmarked) [ACBI2]", "values": [
      {"measurement": "concentration at 24 h", "setting": "[1]; intravenous, 5 mg/kg, 5 mg/kg i.v., time 24 h, individual animals, read-out: Concentration", "value": 85.5, "unit": "nM"},
      {"measurement": "AUC", "setting": "[1]; [3]", "value": 34.2, "unit": "µM·h"},
      {"measurement": "AUC(0-inf)", "setting": "[1]; [3]", "value": 34.7, "unit": "µM·h"},
      {"measurement": "concentration at 0.25 h", "setting": "[1]; iv, 5 mg/kg, 5 mg/kg i.v., 0.25 h, individual animals, read-out: Plasma concentration", "value": 6800, "unit": "nM"},
      {"measurement": "concentration at 1 h", "setting": "[1]; iv, 5 mg/kg, 5 mg/kg i.v., 1 h, individual animals, read-out: Plasma concentration", "value": 5130, "unit": "nM"},
      {"measurement": "concentration at 6 h", "setting": "[1]; iv, 5 mg/kg, 5 mg/kg i.v., 6 h, individual animals, read-out: Plasma concentration", "value": 1220, "unit": "nM"},
      {"measurement": "concentration at 24 h", "setting": "[1]; iv, 5 mg/kg, 5 mg/kg i.v., 24 h, individual animals, read-out: Plasma concentration", "value": 94.9, "unit": "nM"},
      {"measurement": "AUC", "setting": "[1]; [4]", "value": 34.2, "unit": "µM·h"},
      {"measurement": "AUC(0-inf)", "setting": "[1]; [4]", "value": 34.7, "unit": "µM·h"},
      {"measurement": "clearance", "setting": "[1]; iv, 5 mg/kg, 5 mg/kg i.v., NCA, individual animals, read-out: CL", "value": 2.25, "unit": "mL/min/kg"},
      {"measurement": "Vd", "setting": "[1]; iv, 5 mg/kg, 5 mg/kg i.v., NCA, individual animals, read-out: Vss", "value": 0.536, "unit": "L/kg"},
      {"measurement": "clearance", "setting": "[1]; iv, 5 mg/kg, 5 mg/kg i.v., read-out: clearance", "value": 2.1, "unit": "mL/min/kg"},
      {"measurement": "concentration at 0.333 h", "setting": "[1]; oral, 30 mg/kg, 30 mg/kg p.o., time 0.333 h, individual animals, read-out: Concentration", "value": 898, "unit": "nM"},
      {"measurement": "concentration at 1 h", "setting": "[1]; oral, 30 mg/kg, 30 mg/kg p.o., time 1 h, individual animals, read-out: Concentration", "value": 4310, "unit": "nM"},
      {"measurement": "concentration at 2 h", "setting": "[1]; oral, 30 mg/kg, 30 mg/kg p.o., time 2 h, individual animals, read-out: Concentration", "value": 4290, "unit": "nM"},
      {"measurement": "concentration at 6 h", "setting": "[1]; oral, 30 mg/kg, 30 mg/kg p.o., time 6 h, individual animals, read-out: Concentration", "value": 2750, "unit": "nM"},
      {"measurement": "concentration at 24 h", "setting": "[1]; oral, 30 mg/kg, 30 mg/kg p.o., time 24 h, individual animals, read-out: Concentration", "value": 265, "unit": "nM"},
      {"measurement": "bioavailability", "setting": "[1]; oral, 30 mg/kg, 30 mg/kg p.o. vs 5 mg/kg i.v., read-out: F% p.o. (oral bioavailability)", "value": 22, "unit": "%"},
      {"measurement": "bioavailability", "setting": "[1]; po, 30 mg/kg, 30 mg/kg p.o. vs 5 mg/kg i.v., individual animals, read-out: F", "value": 21.5, "unit": "%"},
      {"measurement": "AUC", "setting": "[1]; [5]", "value": 47.5, "unit": "µM·h"},
      {"measurement": "AUC(0-inf)", "setting": "[1]; [5]", "value": 49.5, "unit": "µM·h"},
      {"measurement": "concentration at 0.333 h", "setting": "[1]; po, 30 mg/kg, 30 mg/kg p.o., 0.333 h, individual animals, read-out: Plasma concentration", "value": 898, "unit": "nM"},
      {"measurement": "concentration at 1 h", "setting": "[1]; po, 30 mg/kg, 30 mg/kg p.o., 1 h, individual animals, read-out: Plasma concentration", "value": 4310, "unit": "nM"},
      {"measurement": "concentration at 2 h", "setting": "[1]; po, 30 mg/kg, 30 mg/kg p.o., 2 h, individual animals, read-out: Plasma concentration", "value": 4290, "unit": "nM"},
      {"measurement": "concentration at 6 h", "setting": "[1]; po, 30 mg/kg, 30 mg/kg p.o., 6 h, individual animals, read-out: Plasma concentration", "value": 2750, "unit": "nM"},
      {"measurement": "concentration at 24 h", "setting": "[1]; po, 30 mg/kg, 30 mg/kg p.o., 24 h, individual animals, read-out: Plasma concentration", "value": 265, "unit": "nM"},
      {"measurement": "AUC", "setting": "[1]; [6]", "value": 47.5, "unit": "µM·h"},
      {"measurement": "AUC(0-inf)", "setting": "[1]; [6]", "value": 49.5, "unit": "µM·h"},
      {"measurement": "bioavailability", "setting": "[1]; po, 30 mg/kg, 30 mg/kg p.o., NCA, individual animals, read-out: F", "value": 21.5, "unit": "%"},
      {"measurement": "SMARCA2 (OD, normalised)", "setting": "SMARCA2; 5 mg/kg, 48h", "value": "0.2432 and 0.2157 and 0.2065 and 0.129 and 0.1815"},
      {"measurement": "SMARCA2 Nuclear OD", "setting": "SMARCA2; 5 mg/kg, 48h", "value": "0.2784 and 0.2509 and 0.2416 and 0.1642 and 0.2166"},
      {"measurement": "SMARCA2 (OD, normalised)", "setting": "SMARCA2; 20 mg/kg, 24h", "value": "0.05875 and 0.05583 and 0.06456 and 0.06581"},
      {"measurement": "SMARCA2 Nuclear OD", "setting": "SMARCA2; 20 mg/kg, 24h", "value": "0.09393 and 0.09101 and 0.09973 and 0.101"},
      {"measurement": "SMARCA2 (OD, normalised)", "setting": "SMARCA2; 20 mg/kg, 48h", "value": "0.06607 and 0.09312 and 0.06031 and 0.01981"},
      {"measurement": "SMARCA2 Nuclear OD", "setting": "SMARCA2; 20 mg/kg, 48h", "value": "0.1013 and 0.1283 and 0.09549 and 0.05499"},
      {"measurement": "SMARCA2 (OD, normalised)", "setting": "SMARCA2; 100 mg/kg, 48h", "value": "0.01021 and 0.00729 and 0.00935 and 0.01389 and 0.01189"},
      {"measurement": "SMARCA2 Nuclear OD", "setting": "SMARCA2; 100 mg/kg, 48h", "value": "0.04539 and 0.04246 and 0.04453 and 0.04906 and 0.04706"},
      {"measurement": "tolerability", "setting": "[2]", "value": "well tolerated"}
    ]}
  ]
}
